Molecular target: T1, KRAS 4B G12C protein (Homo sapiens, UniProt P01116, G12C)
T1 construct: This protein contained 188 amino acids in total, including an N-terminal 6-Histidine tag; made in house; host or cells: E. coli BL21
Assay: In vitro covalent adduct formation (CAF) assay by LC-MS
Format: binding
Details: compound 10 μM, protein 5 μM, 22° C., percentage of protein bound by the compound
In short: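 Recombinant His-TEV-tagged KRAS 4B G12C (residues 1-169, E. coli) at 5 μM in Tris-buffered saline pH 7.4 was incubated with 10 μM compound (4% DMSO) at 22° C. for one hour, sampling over time. Intact-mass LC-MS free:adduct ratios gave % protein bound; duplicates.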

CAF (10 minutes/60 minutes) at 10 micromolar: 10 minutes | CAF (10 minutes/60 minutes) at 10 micromolar: 60 minutes | Compound
41% | 52% | C=CC(=O)N1CCN(c2nc(OC[C@@H]3CCCN3C)nc3c2CN(Cc2ccc(F)cc2C(C)C)C3)C[C@@H]1CC#N [1-196]
24% | 52% | C=CC(=O)N1CCN(c2nc(-c3nnc(C)o3)nc3c2CN(C2CCc4ccccc42)C3)C[C@@H]1CC#N (stereo partly drawn) [1-197, 2-((2S)-1-acryloyl-4-(6-(2,3-dihydro-1H-inden-1-yl)-2-(5-methyl-1,3,4-oxadiazol-2-yl)-6,7-dihydro-5H-pyrrolo[3,4-d]pyrimidin-4-yl)piperazin-2-yl)acetonitrile]
15% | 18% | C=CC(=O)N1CCN(c2nc(OC[C@@H]3CCCN3C3CC3)nc3c2CN(C2CCc4ccccc42)C3)C[C@@H]1CC#N (stereo partly drawn) [1-198, 2-((2S)-1-acryloyl-4-(2-(((S)-1-cyclopropylpyrrolidin-2-yl)methoxy)-6-(2,3-dihydro-1H-inden-1-yl)-6,7-dihydro-5H-pyrrolo[3,4-d]pyrimidin-4-yl)piperazin-2-yl)acetonitrile]
62% | 74% | C=CC(=O)N1CCN(c2nc(OC[C@@H]3CCCN3Cc3ccccc3)nc3c2CN(C2CCc4ccccc42)C3)C[C@@H]1CC#N (some centres unmarked) [1-199]
0% | 2% | C=CC(=O)N1CCN(c2nc(OC[C@@H]3CCCN3C)nc3c2CN(C2CCc4ccccc42)C3)C[C@@H]1CS(C)(=O)=O (some centres unmarked) [1-200]
79% | 94% | C=CC(=O)N1CCN(c2nc(OC[C@@H]3CCCN3C)nc3c2CN(Cc2cccc4nc[nH]c24)C3)C[C@@H]1CC#N [1-201]
82% | 89% | C=CC(=O)N1CCN(c2nc(OC[C@@H]3CCCN3C(C)(C)C)nc3c2CN(C2CCc4ccccc42)C3)C[C@@H]1CC#N (some centres unmarked) [1-202]
11% | 52% | C=CC(=O)N1CCN(c2nc(OC[C@@H]3CCCN3C)nc3c2CN(Cc2cccc4ncoc24)C3)C[C@@H]1CC#N [1-203]
46% | 84% | C=CC(=O)N1CCN(c2nc(OC[C@@H]3CCCN3C)nc3c2CN(Cc2cccc4ocnc24)C3)C[C@@H]1CC#N [1-204]
86% | 94% | C=CC(=O)N1CCN(c2nc(OC[C@@H]3CCCN3C)nc3c2CN(Cc2ccccc2CCC)C3)C[C@@H]1CC#N [1-206]
16% | 50% | C=CC(=O)N1CCN(c2nc(Oc3cnc(N)nc3C3CC3)nc3c2CN(C2CCc4ccccc42)C3)C[C@@H]1CC#N (some centres unmarked) [1-207]
0% | 18% | C=CC(=O)N1CCN(c2nc(OC[C@@H]3CCCN3C3CC(=O)C3)nc3c2CN(C2CCc4ccccc42)C3)C[C@@H]1CC#N (some centres unmarked) [1-208]
0%/ 0% | 0%/ 0% | C=CC(=O)N1CCN(c2nc(OC[C@@H]3CCCN3C)nc3c2CN(C2CCc4ccccc42)C3)C[C@@H]1C[S+](C)[O-] (some centres unmarked) [1-209]
0%/ 0% | 0%/ 0% | C=CC(=O)N1CCN(c2nc(OC[C@@H]3CCCN3C)nc3c2CN(C2CCc4ccccc42)C3)C2CS(=O)(=O)CC21 (some centres unmarked) [1-210]
0% | 5% | C=CC(=O)N1CCN(c2nc(OC[C@@H]3CCCN3C)nc3c2CN(C2CCc4ccccc42)C3)C[C@@H]1CCC#N (some centres unmarked) [1-212]

Continued, molecule first:

Compound | CAF (10 minutes/60 minutes) at 10 micromolar: 10 minutes | CAF (10 minutes/60 minutes) at 10 micromolar: 60 minutes
C=CC(=O)N1CCN(c2nc(OC[C@@H]3CCCN3C)nc3c2CN(Cc2ccccc2C(C)C)C3)C[C@@H]1CC#N [1-168] | 95% | 97%
C=CC(=O)N1CCN(c2nc(OC[C@@H]3CCCN3C)nc3c2CN(C2CC(C)(C)c4ccccc42)C3)C[C@@H]1CC#N (some centres unmarked) [1-169] | 63% | 70%
C=CC(=O)N1CCN(c2nc(O[C@@H]3CN(C)C[C@H]3OC)nc3c2CN(C2CCc4ccccc42)C3)C[C@@H]1CC#N (some centres unmarked) [1-170] | 31% | 53%
C=CC(=O)N1CCN(c2nc(Oc3cccc4c3CCN(C)C4)nc3c2CN(C2CCc4ccccc42)C3)C[C@@H]1CC#N (some centres unmarked) [1-171] | 9% | 29%
C=CC(=O)N1CCN(c2nc(OC[C@@H]3CCCN3C)nc3c2CN(Cc2cc(F)ccc2C(C)C)C3)C[C@@H]1CC#N [1-172] | 68% | 73%
C=CC(=O)N1CCN(c2nc(Oc3cccnc3C3CC3)nc3c2CN(C2CCc4ccccc42)C3)C[C@@H]1CC#N (some centres unmarked) [1-173] | 6% | 24%
C=CC(=O)N1CCN(c2nc(Oc3cccc4c3CN(C)C4)nc3c2CN(C2CCc4ccccc42)C3)C[C@@H]1CC#N (some centres unmarked) [1-174] | 9% | 28%
C=CC(=O)N1CCN(c2nc(OC[C@@H]3CCCN3CC)nc3c2CN(C2CCc4ccccc42)C3)C[C@@H]1CC#N (some centres unmarked) [1-175] | 60% | 82%
C=CC(=O)N1CCN(c2nc(OC[C@@H]3CCCN3C(C)C)nc3c2CN(C2CCc4ccccc42)C3)C[C@@H]1CC#N (some centres unmarked) [1-176] | 88% | 94%
C=CC(=O)N1CCN(c2nc(OC[C@@H]3CCCN3C)nc3c2CN(Cc2cc(O)cc4ccccc24)C3)C[C@@H]1CC#N [1-180] | 94% | 96%
C=CC(=O)N1CCN(c2nc(OC[C@@H]3CCCN3C)nc3c2C(C(F)(F)F)N(Cc2ccccc2)C3)C[C@@H]1CC#N (stereo partly drawn) [1-181, 2-((2S)-1-acryloyl-4-(6-benzyl-2-(((S)-1-methylpyrrolidin-2-yl)methoxy)-5-(trifluoromethyl)-6,7-dihydro-5H-pyrrolo[3,4-d]pyrimidin-4-yl)piperazin-2-yl)acetonitrile] | 0%/ 0% | 0%/ 0%
C=CC(=O)N1CCN(c2nc(OC[C@@H]3CCCN3C)nc3c2CN(C2CCc4ccccc42)C3)[C@H](C(N)=O)C1 (some centres unmarked) [1-182] | 7% | 30%
C=CC(=O)N1CCN(c2nc(OC[C@@H]3CCCN3C)nc3c2CN(Cc2c(Cl)c(F)cc4[nH]ncc24)C3)C[C@@H]1CC#N [1-183] | 63% | 93%
C=CC(=O)N1CCN(c2nc(OC[C@@H]3CCCN3C)nc3c2CN(Cc2cc(O)ccc2CC)C3)C[C@@H]1CC#N [1-184] | 96% | 97%
C=CC(=O)N1CCN(c2nc(OC[C@@H]3CCCN3C)nc3c2CN(Cc2cc(O)ccc2C(C)C)C3)C[C@@H]1CC#N [1-185] | 96% | 97%
C=CC(=O)N1CCN(c2nc(OC[C@@H]3CCCN3C)nc3c2CN(C2CC(C)(C)c4ccc(OC)cc42)C3)C[C@@H]1CC#N (some centres unmarked) [1-186] | 14% | 36%
C=CC(=O)N1CCN(c2nc(OC[C@@H]3CCCN3C)nc3c2CN(Cc2ccccc2C(C)(C)C)C3)C[C@@H]1CC#N [1-187] | 94% | 95%
C=CC(=O)N1CCN(c2nc(OC[C@@H]3CCCN3C)nc3c2CN(Cc2ccccc2C(C)CC)C3)C[C@@H]1CC#N (some centres unmarked) [1-188] | 47% | 79%
C=CC(=O)N1CCN(c2nc(OC[C@@H]3CCCN3C)nc3c2CN(C(C)c2ccccc2C(C)C)C3)C[C@@H]1CC#N (some centres unmarked) [1-189] | 57% | 61%
C=CC(=O)N1CCN(c2nc(OC[C@@H]3CCCN3C)nc3c2CN(C2CCc4ccccc42)C3)CC1 (some centres unmarked) [1-190] | 6% | 26%
C=CC(=O)N1CCN(c2nc(OC[C@@H]3CCCN3C)nc3c2CN(Cc2ccccc2CC(C)C)C3)C[C@@H]1CC#N [1-191] | 52% | 73%
C=CC(=O)N1CCN(c2nc(OC[C@@H]3CCCN3CC(C)C)nc3c2CN(C2CCc4ccccc42)C3)C[C@@H]1CC#N (some centres unmarked) [1-192] | 53% | 65%
C=CC(=O)N1CCN(c2nc(OC[C@@H]3CCCN3C)nc3c2CN(C2CCc4ccccc42)C3)[C@@H](C(N)=O)C1 (some centres unmarked) [1-193] | 7% | 31%
C=CC(=O)N1CCN(c2nc(OC[C@@H]3CCCN3C)nc3c2CN(C2CC(C)(C)c4ccc(O)cc42)C3)C[C@@H]1CC#N (some centres unmarked) [1-194] | 32%/ 32% | 32%/ 32%
C=CC(=O)N1CCN(c2nc(OC[C@@H]3CCCN3C)nc3c2CN(C2CCc4ccccc42)C3)C[C@@H]1CSC (some centres unmarked) [1-195] | 0% | 2%

From patent publication US20210292330A1, “PYRROLIDINE-FUSED HETEROCYCLES” (Erasca, Inc., priority 2020, published 2021)
